Assay: Human HepG2 cell viability assay in 384 well format
Assay type: toxicity, cell-based
Set-up: dose 125 nL, time 70.5 hour; cytotoxicity at 70.5 h: concentration not given beside the values
Settings: HepG2 cells, read-out: Inhibition

| SMILES | cytotoxicity at 70.5 h |
| --- | --- |
| CC(C)c1nc(CN(C)C(=O)C2CC(=O)N(Cc3ccncc3)C2)cs1 (stereo unspecified) | 5.05% |
| Cc1cccc2cc(C(=O)N3CCC(F)(F)CC3)n(C)c12 | 32.7% |
| O=C1CCC2(CCNCC2)CN1CCCOc1cccnc1 | -1.48% |
| CCOCCn1c(=O)[nH]c2cc(C(=O)N(C)Cc3nc(C)c[nH]3)ccc21 | -5.85% |
| COCCN1CCN(Cc2ccc3nsnc3c2)[C@H]2CS(=O)(=O)C[C@H]21 | -5.97% |
| CCOc1ccc2nc(CN3CCC(CNC(C)=O)C3)ccc2c1 (stereo unspecified) | 1.6% |
| COc1ccc(/C=C/CN2CCN(c3ncccc3C(N)=O)CC2)cc1 | -1.81% |
| N#Cc1cc2n(n1)CCN(C(=O)CCc1c[nH]c3ccccc13)C2 | -10.2% |
| CN(Cc1cnn(C)c1)C(=O)C1COc2ccccc2C1 (stereo unspecified) | -5.03% |
| CN1CCN2CCN(C(=O)c3cnn4cc(CCO)cnc34)CC2C1 (stereo unspecified) | -8.48% |
| CCn1ccnc1CN(C)c1cc(OC)ncn1 | -8.04% |
| Cc1cc(C)c2nc(CNCCNS(C)(=O)=O)cc(O)c2c1 | -2.21% |
| Cn1cc2ncn(CCC3CCN(Cc4ccccc4)C3)c(=O)c2n1 (stereo unspecified) | -7% |
| CC(=O)Cc1c(C)nn(-c2cncc(C(N)=O)c2)c1C | -9.56% |
| CSCC[C@H](NC(C)=O)c1nc(CC(C)C)n[nH]1 | 7.09% |
| CCOCCC(=O)NCC1COc2c(cccc2OC)C1 (stereo unspecified) | -4.38% |
| Cc1noc(C)c1CN(C)C(=O)c1cnc(C2CC2)nc1O | 8.69% |
| CCC(C(=O)NC1CCCCC1)n1ccc2ncccc2c1=O (stereo unspecified) | -11.8% |
| O=C(Nc1ccccc1-c1ccccc1)N1C[C@@H]2CNC[C@]2(C(=O)O)C1 | -2.53% |
| CCC(CO)N(Cc1ccsc1)Cc1c(C)nn(C)c1Cl (stereo unspecified) | -5.33% |
| Cc1cc(CN[C@H](C(N)=O)[C@@H](C)O)c(C)s1 | -3.69% |
| O=C(O)CC1COCCN1C(=O)C1(c2ccc(Cl)cc2)CCC1 (stereo unspecified) | 5.66% |
| CCC(=O)N1CCN(C(=O)c2ccc(COC)o2)[C@H]2CS(=O)(=O)C[C@H]21 | -5.66% |

| SMILES | cytotoxicity at 70.5 h |
| --- | --- |
| CC1CCCCN1C1CN(C(=O)c2sccc2S(N)(=O)=O)C1 (stereo unspecified) | -2.85% |
| CC(C)c1cc(C(=O)N2CCCC(Cn3cc(CO)nn3)C2)on1 (stereo unspecified) | -2.32% |
| CN(CCCc1nccn1C)c1nccc(-c2cc(C(=O)O)ccn2)n1 | -3.33% |
| CN1CCc2[nH]nc(C(=O)N3CCCC4(CN(C)C(=O)O4)C3)c2C1 (stereo unspecified) | -6.4% |
| O=C(NCCc1c[nH]cn1)C1CCCN(C2CCOCC2)C1 (stereo unspecified) | -5.69% |
| CCN(CC)C(CNCc1ccc(C)o1)c1ccco1 (stereo unspecified) | -11.7% |
| Cc1nnsc1CN1C[C@H]2CC[C@@H]1CN(Cc1ccc(F)cc1)C2 | 27.1% |
| CN(Cc1ccccc1)C1(C(=O)NCC(N)=O)Cc2ccccc2C1 | 5.7% |
| O=C1NC(C(=O)NCc2cccnc2Oc2ccc(F)c(F)c2)CO1 (stereo unspecified) | -21.4% |
| COc1cc2c(cc1-c1nc3c(cnn3C)[nH]1)OCO2 | 12.3% |
| Cc1nc(N(C)C)nc(NCCc2ccccn2)c1C | -9.09% |
| CCC(=O)N1CCN(C(=O)Nc2cccc(F)c2)[C@H]2CS(=O)(=O)C[C@H]21 | -2.91% |
| CCOCC1CCN(C(=O)C(c2ccc(F)cc2)N(C)C)CC1 (stereo unspecified) | -8% |
| Nc1nc(CCCNC(=O)c2ccccc2C2CCNC2)cs1 (stereo unspecified) | -20.9% |
| COc1cccc([C@H]2CN(C(=O)c3nnc4n3CCCC4)C[C@@H]2N)c1 | -3.91% |
| CC(C)C1CN(Cc2cnc(N(C)C)nc2)CCCN1CC1CC1 (stereo unspecified) | -10% |
| CCSc1ncc(-c2cc(C3CC3)nc(N)c2C#N)cn1 | -4.52% |
| c1cn(CCc2c[nH]cn2)c(-c2cc(CN3CCCC3)cs2)n1 | -9.06% |
| COCCC1(CO)CCCN(C(=O)c2cccnc2O)C1 (stereo unspecified) | -3.89% |
| CNS(=O)(=O)c1ccc(CN2CCC(c3ccncc3)CC2)cc1 | -14.4% |
| Cc1ccc(CN2CCN(C3CCC3)CC2CCO)o1 (stereo unspecified) | -10.1% |
| CCN(C)C(=O)c1cccc(S(=O)(=O)NCCc2csc(N)n2)c1 | 19.2% |
| O=C1C[C@H]2CC[C@@H](CN1)N2C(=O)CCc1ccccc1 | -8.36% |

| SMILES | cytotoxicity at 70.5 h |
| --- | --- |
| CCN(CC)CCn1cnc(-c2ccccc2)c1-c1cnc(C)s1 | -7.41% |
| CC(C)=CCC/C(C)=C/CN1CCN(C)C2(CCNC(=O)CC2)C1 (stereo unspecified) | -9.38% |
| CN(C)c1ccc(-c2cccc(-c3ccn(CCCO)n3)c2)nn1 | -3.34% |
| CCCSc1ncc(C2CC(=O)NCc3nc4ccccn4c32)cn1 (stereo unspecified) | -3.19% |
| CC(C)c1nccc(CN2CCCC(O)(CN(C)C)CC2)n1 (stereo unspecified) | -7.74% |
| CCN1CC(C(=O)NCCc2csc(-c3ccncc3)n2)CC1=O (stereo unspecified) | -4.27% |
| COC(=O)c1cccc(-c2nc(CC3CCN(C)CC3)no2)c1 | -3.78% |
| Cn1cc(CN2CCCN(CCCc3ccccc3)CC2)cn1 | -15.4% |
| CC(C)n1ccnc1Cn1ccc2ncccc2c1=O | -0.693% |
| CC(C)C1CN(S(=O)(=O)N2CCCC2)CCCN1Cc1ccc(F)cc1 (stereo unspecified) | -3.07% |
| COc1nc2c(cc1C(=O)N(C)Cc1[nH]nc3c1CCC3)CCC2 | 27.9% |
| COCc1cc(NCc2cccnc2Oc2ccc(C)nc2)ncn1 | -12.4% |
| CC(C)[C@@H]1CN(C(=O)NCCc2ccccc2)C[C@H]1NS(=O)(=O)N(C)C | 2.29% |
| Cc1ccccc1N1CCN(C(=O)CSc2ccncc2)CC1=O | -8.48% |
| N#Cc1cccc(C(=O)N2C[C@H]3CC[C@@H]2CN(C(=O)C2CCC2)C3)c1 | -4.08% |
| CCNc1ncc(CN2CCOC(Cc3cccc(OC)c3)C2)cn1 (stereo unspecified) | -2.81% |
| NCCC1CN(Cc2cnc3c(-c4ccccc4)cnn3c2)CCO1 (stereo unspecified) | -2.68% |
| CCN1CCC[C@@H]1CNC(=O)c1cc(COc2ccccc2)[nH]n1 | -1.42% |
| O=C(O)c1ccc(C2CCCN(Cc3ccc(-c4cc[nH]n4)o3)C2)cc1 (stereo unspecified) | 16.9% |
| c1cc(CNc2ccc(-c3nc(C4CC4)no3)cn2)no1 | -8.43% |
| CCN1CCC(N[C@@H]2CC[C@@H]2NC(=O)Cc2csc(C)n2)CC1 | -1.08% |
| O=C(CN1CCOCC1)N(c1ccccc1)c1ccccc1 | -11.2% |
| CNCc1cn(C2CCN(CCC(C)c3ccccc3)CC2)nn1 (stereo unspecified) | 21.7% |

| SMILES | cytotoxicity at 70.5 h |
| --- | --- |
| Cn1ncc2c(N3CC[C@H](O)C3)nc(-c3ccncc3)nc21 | -15.7% |
| O=C(CC[C@@H]1CCCN2CCCC[C@H]12)NCCc1nc(O)cc(O)n1 | -5.7% |
| CC(Nc1ncnc2c1CCNC2)c1ccc2c(c1)CCCC2 (stereo unspecified) | -2.47% |
| CCCn1nc(C)c(CNS(=O)(=O)NCc2ccccc2)c1C | -12.7% |
| CC(C)CCN1CC2(CCCN(C(=O)NCc3cccs3)C2)CCC1=O (stereo unspecified) | -2.43% |
| COc1ccc(OCCCN(C)C(=O)C2CCCN2C(N)=O)cc1 (stereo unspecified) | -3.9% |
| COc1cccc(OC2CN(C(=O)CCn3cnnn3)C2)c1 | -10.5% |
| CC1CCCCN1C1CN(c2ccnc(C(=O)NCc3ccco3)c2)C1 (stereo unspecified) | -15.4% |
| CCCn1c(C)c(CC(=O)NCC(N)=O)c2c1CC(C)(C)CC2=O | 0.554% |
| O=C(Cc1c[nH]c(=O)[nH]c1=O)N1CCCCC1CCc1cccc(O)c1 (stereo unspecified) | -5.29% |
| CCCN(Cc1cnc2ccccc2n1)Cc1ccccc1OC | -7.09% |
| COc1ccc(S(=O)(=O)N[C@H]2CN(C(C)=O)C[C@@H]2C2CC2)cc1C | -14.2% |
| COc1ccc(-c2nc3c([nH]2)CCNC3)c(OC)c1OC | 1.85% |
| Cc1cc(CN(C)C(=O)CN2CC3(CCNCC3)OC2=O)no1 | -15.9% |
| CCOCCCNCc1cc(O)c2cc(C)ccc2n1 | 22.7% |
| CC(C)c1cc(NC2CCN(C(=O)N3CCCC3)CC2)ncn1 | 12.6% |
| O=C(NCCc1c[nH]cn1)C1CCCN(Cc2ccco2)C1 (stereo unspecified) | -1.6% |
| CC(Cc1cn(CCc2nnn[nH]2)nn1)c1ccccc1 (stereo unspecified) | -5.17% |
| Cc1ccc(CN(CCCO)Cc2nc3ccccc3[nH]2)s1 | -3.29% |
| CC(=O)c1ccc(C(=O)N2C[C@@H](CN3CCCC3)[C@@H](CO)C2)cc1 | 12.4% |
| CCc1cc(CN(C)Cc2nc(-c3sccc3C)oc2C)on1 | -9.39% |
| CC(C(=O)N1CCC(c2[nH]ncc2-c2ccccc2)CC1)n1cncn1 (stereo unspecified) | -9.13% |
| O=C1CCC2(CCCO2)CCN1Cc1noc(C2CCCC2)n1 (stereo unspecified) | 0.738% |

| SMILES | cytotoxicity at 70.5 h |
| --- | --- |
| CN1CC(c2ccccc2)CC2(CCN(C(=O)c3cccnn3)CC2)C1 (stereo unspecified) | -4.99% |
| C[C@H](NC(=O)C1(N(C)Cc2ccccc2)Cc2ccccc2C1)C(N)=O | -2.36% |
| Cc1ccccc1CN1CCN(C(=O)c2cnc(C3CC3)[nH]c2=O)CC1 | 7.92% |
| CSc1ccc(CN(CCO)C(=O)CCOc2ccccc2)cc1 | -7.56% |
| O=C1N(CCCc2ccccc2)CCCC12CCN(C(CO)CO)C2 (stereo unspecified) | -4.16% |
| Cc1nonc1OCCNc1ncnc2sc3c(c12)CCNC3 | -3.76% |
| CC(C)=CCN1CC2(CCN(Cc3cccc(C#N)c3)CC2)CC1=O | 8.66% |
| Cc1cc(C)n(-c2ccc(C(=O)NCC(CO)Cc3ccco3)cc2)n1 (stereo unspecified) | -7.33% |
| CN1CCN(Cc2nc3c(s2)CCCC3)[C@H]2CS(=O)(=O)C[C@H]21 | 1.26% |
| O=c1[nH]c(COc2cccc(F)c2)nc2c1CCNC2 | -17% |
| O=C(N[C@@H]1CCN(Cc2cc3ccccc3s2)C[C@H]1O)c1cccnc1 | -3.4% |
| CN(C)S(=O)(=O)NCc1cccnc1Oc1ccccc1 | -6.53% |
| c1ccc(CN2CCC(CNc3ncnc4c3CCNCC4)CC2)cc1 | 0.757% |
| CN(C)CCCN1CC2(CCN(C(=O)C3(C)CCCCO3)CC2)OC1=O (stereo unspecified) | 17.7% |
| Cc1cccnc1NCCNC(=O)C1CCN(Cc2ccco2)CC1 | 9.3% |
| CN1CCC2(CC1)CN(Cc1ccc(C3CCCCO3)o1)CCCN2C (stereo unspecified) | -4.97% |
| CC(C)c1cc(C(=O)N(Cc2ccncc2)CC2CCCO2)no1 (stereo unspecified) | -6.68% |
| Cc1cc(NCCCNc2cccnc2)n2nc(C)c(C)c2n1 | -10.7% |
| OCC1(CC2CC2)CCCN(Cc2cnc(N3CCOCC3)nc2)C1 (stereo unspecified) | -5.42% |

Source: ChEMBL document CHEMBL3507680, “University of Dundee, Gates Library screen for HepG2 cell viability”
